In US11110082B2, “Tyrosine kinase inhibitors” (Rigel Pharmaceuticals, Inc., priority 2016, dated 2021):

Target: T1, MerTK (Homo sapiens, UniProt Q12866)
T1 construct: Seed HUVECs (10K cells/well) in EBM-2 complete media; host or cells: HUVEC (primary human umbilical vein endothelial cells)
T1 sequence (Q12866 21-999): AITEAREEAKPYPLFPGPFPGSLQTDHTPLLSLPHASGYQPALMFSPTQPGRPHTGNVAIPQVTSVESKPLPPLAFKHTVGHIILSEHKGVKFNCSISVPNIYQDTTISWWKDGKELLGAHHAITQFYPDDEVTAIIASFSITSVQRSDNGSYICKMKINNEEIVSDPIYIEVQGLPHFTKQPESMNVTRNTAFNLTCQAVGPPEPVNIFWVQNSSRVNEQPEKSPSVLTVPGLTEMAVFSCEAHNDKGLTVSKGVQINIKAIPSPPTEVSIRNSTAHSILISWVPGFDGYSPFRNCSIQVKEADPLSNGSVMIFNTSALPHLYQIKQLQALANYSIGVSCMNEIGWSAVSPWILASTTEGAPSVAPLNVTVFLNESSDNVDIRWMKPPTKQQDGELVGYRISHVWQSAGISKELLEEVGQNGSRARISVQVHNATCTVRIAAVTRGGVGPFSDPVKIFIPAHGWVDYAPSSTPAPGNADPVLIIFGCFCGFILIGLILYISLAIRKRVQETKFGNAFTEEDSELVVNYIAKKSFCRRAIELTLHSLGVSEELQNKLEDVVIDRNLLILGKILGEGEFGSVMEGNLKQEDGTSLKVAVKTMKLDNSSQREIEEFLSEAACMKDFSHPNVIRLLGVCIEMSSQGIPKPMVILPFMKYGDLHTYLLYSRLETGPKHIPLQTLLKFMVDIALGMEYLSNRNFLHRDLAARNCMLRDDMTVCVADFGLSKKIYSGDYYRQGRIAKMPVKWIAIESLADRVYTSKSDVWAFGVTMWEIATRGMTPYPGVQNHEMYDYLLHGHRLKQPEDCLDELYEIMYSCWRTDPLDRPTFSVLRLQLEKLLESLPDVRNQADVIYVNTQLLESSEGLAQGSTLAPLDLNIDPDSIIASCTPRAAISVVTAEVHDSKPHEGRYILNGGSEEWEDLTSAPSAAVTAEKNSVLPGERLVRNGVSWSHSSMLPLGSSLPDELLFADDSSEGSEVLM
Experiment: PAKT HTRF-HUVEC assay (pAkt Ser473 HTRF after anti-human MerTK-XL stimulation)
Assay type: cell-based
Conditions: HUVEC cells, 1 hour compound, stimulated with anti-human MerTK-XL 1 ug/mL for 10 minutes, read-out: inhibition of MerTK
In short: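 HUVECs starved 3-4 h in basal medium, preincubated with compound 1 h at 37° C, then stimulated 10 min with cross-linked anti-human MerTK antibody (final 1 ug/mL). Lysates read for pAkt (Ser473) by HTRF; EC50 from curve fitting.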

Row | SMILES | EC50
1 | O=c1c2cc(N3CCN4CCC[C@@H]4C3)ccc2c2cnc(NCC3CC3)nc2n1[C@H]1CC[C@H](O)CC1 [Compound 103, trans-3-((Cyclopropylmethyl)amino)-8-((R)-hexahydropyrrolo[1,2-a]pyrazin-2(1H)-yl)-5-(4-hydroxycyclohexyl)pyrimido [4,5-c]isoquinolin-6(5H)-one] | 129 nM
2 | CN1CCN(Cc2ccc3c(c2)c(=O)n([C@H]2CC[C@](C)(O)CC2)c2nc(NCC4CCC4)ncc32)CC1 [Compound 34, trans-3-((Cyclobutylmethyl)amino)-5-(4-hydroxy-4-methylcyclohexyl)-8-((4-methylpiperazin-1-yl)methyl)pyrimido[4,5-c]isoquinolin-6(5H)-one] | 7.4 nM
3 | CCCCNc1ncc2c3ccc(CN4CCN(C)CC4)cc3c(=O)n(CC3CCC(N)CC3)c2n1 (stereo not shown) [Compound 10, 5-((4-Aminocyclohexyl)methyl)-3-(butylamino)-8-((4-methylpiperazin-1-yl)methyl)pyrimido[4,5-c]isoquinolin-6(5H)-one] | 146 nM
4 | CC(C)N1CCN(Cc2ccc3c(c2)c(=O)n(C2CCC(C)(O)CC2)c2nc(NCCC4CC4)ncc32)CC1 (stereo not drawn) [Compound 32, trans-3-((2-Cyclopropylethyl)amino)-5-(4-hydroxy-4-methylcyclohexyl)-8-((4-isopropylpiperazin-1-yl)methyl)pyrimido[4,5-c]isoquinolin-6(5H)-one] | 6.5 nM
5 | O=c1c2cc(CN3CCC(N4CCCC4)CC3)ccc2c2cnc(NCC3CC3)nc2n1[C@H]1CC[C@H](O)CC1 [Compound 149] | 53.8 nM
6 | O=c1c2cc(N3CC4(COC4)C3)ccc2c2cnc(NC3CC(F)(F)C3)nc2n1[C@H]1CC[C@H](O)CC1 [Compound 67, trans-3-((3,3-difluorocyclobutyl)amino)-5-(4-hydroxycyclohexyl)-8-(2-oxa-6-azaspiro[3.3]heptan-6-yl)pyrimido[4,5-c]isoquinolin-6(5H)-one] | 8030 nM
7 | CN1CCN(Cc2ccc3c(c2)c(=O)n([C@H]2CC[C@H](O)CC2)c2nc(NCCC4CC4)ncc32)CC1 [Compound 26, trans-3-((2-Cyclopropylethyl)amino)-5-(4-hydroxycyclohexyl)-8-((4-methylpiperazin-1-yl)methyl)pyrimido[4,5-c]isoquinolin-6(5H)-one] | 16.7 nM
8 | CCCCNc1ncc2c3ccc(N4CC5(COC5)C4)cc3c(=O)n([C@H]3CC[C@H](O)CC3)c2n1 [Compound 68, trans-3-(Butylamino)-5-(4-hydroxycyclohexyl)-8-(2-oxa-6-azaspiro[3.3]heptan-6-yl)pyrimido[4,5-c]isoquinolin-6(5H)-one] | 78.4 nM
9 | CCCCNc1ncc2c3ccc(N4CCN(C5COC5)CC4)cc3c(=O)n([C@H]3CC[C@H](O)CC3)c2n1 [Compound 77, trans-3-(Butylamino)-5-(4-hydroxycyclohexyl)-8-(4-(oxetan-3-yl)piperazin-1-yl)pyrimido[4,5-c]isoquinolin-6(5H)-one] | 21.9 nM
10 | CCCCNc1ncc2c3ccc(CN4CCNCC4)cc3c(=O)n([C@H]3CC[C@H](O)CC3)c2n1 [Compound 154] | 66 nM
11 | CN1CCN(c2ccc3c(c2)c(=O)n(C2CCC(C)(O)CC2)c2nc(NCC4CC4)ncc32)CC1 (stereo not drawn) [Compound 97, trans-3-((Cyclopropylmethyl)amino)-5-(4-hydroxy-4-methylcyclohexyl)-8-(4-methylpiperazin-1-yl)pyrimido[4,5-c]isoquinolin-6(5H)-one] | 69.1 nM

The remaining compounds from weak to strong by EC50, led by results:

Row | EC50 | SMILES
12 | 15800 nM | CCC(F)(F)CNc1ncc2c3ccccc3c(=O)n([C@H]3CC[C@H](O)CC3)c2n1 [Compound 119, trans-3-((2,2-difluorobutyl)amino)-5-(4-hydroxycyclohexyl)pyrimido [4,5-c]isoquinolin-6(5H)-one]
13 | 3910 nM | CCC1(CNc2ncc3c4ccc(N5CCN(C)CC5)cc4c(=O)n([C@H]4CC[C@H](O)CC4)c3n2)CCC1 [Compound 91, trans-3-(((1-Ethylcyclobutyl)methyl)amino)-5-(4-hydroxycyclohexyl)-8-(4-methylpiperazin-1-yl)pyrimido[4,5-c]isoquinolin-6(5H)-one]
14 | 1180 nM | CCC1(CNc2ncc3c4ccc(CN5CCOCC5)cc4c(=O)n([C@H]4CC[C@H](O)CC4)c3n2)CC1 [Compound 23]
15 | 554 nM | CCCCNc1ncc2c3ccccc3c(=O)n([C@H]3CC[C@@](C)(O)CC3)c2n1 [Compound 115, cis-3-(Butylamino)-5-(4-hydroxy-4-methylcyclohexyl)pyrimido [4,5-c]isoquinolin-6(5H)-one]
16 | 537 nM | O=c1c2cc(CC3CCNCC3)ccc2c2cnc(NCC3CC3)nc2n1[C@H]1CC[C@H](O)CC1 [Compound 207, trans-3-((Cyclopropylmethyl)amino)-5-(4-hydroxycyclohexyl)-8-(piperidin-4-ylmethyl)pyrimido[4,5-c]isoquinolin-6(5H)-one]
17 | 221 nM | CN1CCN(c2ccc3c(c2)c(=O)n([C@H]2CC[C@H](O)CC2)c2nc(NC4CC(F)(F)C4)ncc32)CC1 [Compound 85, trans-3-((3,3-Difluorocyclobutyl)amino)-5-(4-hydroxycyclohexyl)-8-(4-methylpiperazin-1-yl)pyrimido[4,5-c]isoquinolin-6(5H)-one]
18 | 165 nM | C[C@]1(O)CC[C@H](n2c(=O)c3ccccc3c3cnc(NCCC4CC4)nc32)CC1 [Compound 122, trans-3-((2-Cyclopropylethyl)amino)-5-(4-hydroxy-4-methylcyclohexyl)pyrimido [4,5-c]isoquinolin-6(5H)-one]
19 | 116 nM | CCCCNc1ncc2c3ccc(CN4CCOCC4)cc3c(=O)n(CC3CCC(N)CC3)c2n1 (stereo not shown) [Compound 9, 5-((4-Aminocyclohexyl)methyl)-3-(butylamino)-8-(morpholinomethyl)pyrimido [4,5-c]isoquinolin-6(5H)-one]
20 | 95.2 nM | CCCCNc1ncc2c3ccc(N4CCOCC4)cc3c(=O)n([C@H]3CC[C@H](O)CC3)c2n1 [Compound 62, trans-3-(Butylamino)-5-(4-hydroxycyclohexyl)-8-morpholinopyrimido[4,5-c]isoquinolin-6(5H)-one]
21 | 70.4 nM | C[C@@H]1CN(c2ccc3c(c2)c(=O)n([C@H]2CC[C@H](O)CC2)c2nc(NCC4CC4)ncc32)CCN1C [Compound 106, trans-3-((Cyclopropylmethyl)amino)-8-((R)-3,4-dimethylpiperazin-1-yl)-5-(4-hydroxycyclohexyl)pyrimido [4,5-c]isoquinolin-6(5H)-one]
22 | 49.7 nM | O=c1c2cc(CN3CCN4CCC[C@H]4C3)ccc2c2cnc(NCC3CC3)nc2n1[C@H]1CC[C@H](O)CC1 [Compound 157]
23 | 44.9 nM | CCCCNc1ncc2c3ccccc3c(=O)n(C3CCC(C)(O)CC3)c2n1 (stereo not drawn) [Compound 113, trans-3-(Butylamino)-5-(4-hydroxy-4-methylcyclohexyl)pyrimido [4,5-c]isoquinolin-6(5H)-one]
24 | 44.2 nM | CCCCNc1ncc2c3ccc(CN4CCOCC4)cc3c(=O)n([C@H]3CC[C@H](O)CC3)c2n1 [Compound 2, trans-3-(Butylamino)-5-(4-hydroxycyclohexyl)-8-(morpholinomethyl)pyrimido [4,5-c]isoquinolin-6(5H)-one]
25 | 36.6 nM | CN1CCN(Cc2ccc3c(c2)c(=O)n(C2CCC(C)(O)CC2)c2nc(NCC4CC4)ncc32)CC1 (stereo not drawn) [Compound 28, trans-3-((Cyclopropylmethyl)amino)-5-(4-hydroxy-4-methylcyclohexyl)-8-((4-methylpiperazin-1-yl)methyl)pyrimido[4,5-c]isoquinolin-6(5H)-one]
26 | 30.7 nM | O=c1c2cc(CN3CCOCC3)ccc2c2cnc(NCC3CCC3)nc2n1[C@H]1CC[C@H](O)CC1 [Compound 21, trans-3-((Cyclobutylmethyl)amino)-5-(4-hydroxycyclohexyl)-8-(morpholinomethyl)pyrimido [4,5-c]isoquinolin-6(5H)-one]
27 | 26.6 nM | O=c1c2cc(CN3CCC(O)(c4ccncc4)CC3)ccc2c2cnc(NCC3CC3)nc2n1[C@H]1CC[C@H](O)CC1 [Compound 228, trans-3-((Cyclopropylmethyl)amino)-8-((4-hydroxy-4-(pyridin-4-yl)piperidin-1-yl)methyl)-5-(4-hydroxycyclohexyl)pyrimido[4,5-c]isoquinolin-6(5H)-one]
28 | 18.3 nM | CC(C)N1CCN(Cc2ccc3c(c2)c(=O)n([C@H]2CC[C@H](O)CC2)c2nc(NCC4CC4)ncc32)CC1 [Compound 30, trans-3-((Cyclopropylmethyl)amino)-5-(4-hydroxycyclohexyl)-8-((4-isopropylpiperazin-1-yl)methyl)pyrimido[4,5-c]isoquinolin-6(5H)-one]
